From patent US20230346670A1, “Prebiotic Oral Care Compositions and Methods” (Colgate-Palmolive Company, priority 2020, published 2023)

Legend:
Format in all cases: cell-based
[1] = system: multi-species biofilm (beneficial/commensal species, periodontal pathogens, cariogenic pathogens); assay: Multi-species biofilm composition, relative proportions and group changes
Experimental: Biofilms are grown vertically on Calcium Deficient Hydroxyapatite (CAD-HA) disks (Hitemco Medical, Old Bethpage, USA) using the Amsterdam Active Adhesion model. […] After this 24 h, disks are rinsed 3 times a day for 3 minutes (RT, 250 rpm), for 3 consecutive days, by transferring the lid containing the disks to a new 24-well plate containing 2 mL/well of the appropriate substrate solution. As a negative control, PBS (pH 5.7) without substrate supplementation is used. N-acetyl-D-glucosamine (NADG), α-D-lactose, D-(+)-trehalose and D-(+)-raffinose are selected to determine their effects on multi-species biofilm composition. Repeated rinsing of the biofilms with the substrates at a concentration of 1 M results in a significant decrease in absolute numbers in at least four of the pathogenic bacterial species tested in the assay, in comparison to the control, the results of which are described in Table 1 below. Note, NADG decreased absolute numbers of S. sobrinus. Absolute abundances of bacterial species are shown as mean ± SD (n = 3) logarithmic values of the genome equivalents per millilitre (log(Geq/mL)).

A. actinomycetemcomitans = assay: Multi-species biofilm composition, absolute abundance (Geq/mL); conditions: repeated rinsing
Experimental: (§1) Biofilms are grown vertically on Calcium Deficient Hydroxyapatite (CAD-HA) disks (Hitemco Medical, Old Bethpage, USA) using the Amsterdam Active Adhesion model. Biofilms are allowed to establish during 24 h (37° C., 170 rpm) under microaerophilic conditions (6% O2, 7% CO2, 7% H2, 80% N2). After this 24 h, disks are rinsed 3 times a day for 3 minutes (RT, 250 rpm), for 3 consecutive days, by transferring the lid containing the disks to a new 24-well plate containing 2 mL/well of the appropriate substrate solution. As a negative control, PBS (pH 5.7) without substrate supplementation is used.
(§2) N-acetyl-D-glucosamine (NADG), α-D-lactose, D-(+)-trehalose and D-(+)-raffinose are selected to determine their effects on multi-species biofilm composition. Repeated rinsing of the biofilms with the substrates at a concentration of 1 M results in a significant decrease in absolute numbers in at least four of the pathogenic bacterial species tested in the assay, in comparison to the control, the results of which are described in Table 1 below. Note, NADG decreased absolute numbers of S. sobrinus. Absolute abundances of bacterial species are shown as mean ± SD (n = 3) logarithmic values of the genome equivalents per millilitre (log(Geq/mL)).

P. gingivalis = assay: as above; conditions: repeated rinsing
Experimental: as §1, §2

S. gordonii = assay: as above; conditions: repeated rinsing
Experimental: as §1, §2

S. mitis = assay: as above; conditions: repeated rinsing
Experimental: as §1, §2

S. oralis = assay: as above; conditions: repeated rinsing
Experimental: as §1, §2

P. intermedia = assay: as above; conditions: repeated rinsing
Experimental: as §1, §2

S. sobrinus = assay: as above; conditions: repeated rinsing
Experimental: as §1, §2

A. naeslundii = assay: as above; conditions: repeated rinsing
Experimental: as §1, §2

[2] = system: P. intermedia virulence genes; assay: Virulence gene expression in multi-species biofilm (SYBR RT-qPCR); conditions: for fold change in DnaJ expression, geometric mean (95% C.I.) / fold change in DnaK expression, geometric mean (95% C.I.) / fold change in ECF expression, geometric mean (95% C.I.) / fold change in GroES expression, geometric mean (95% C.I.) / fold change in HtpG expression, geometric mean (95% C.I.) / fold change in KpsD expression, geometric mean (95% C.I.) / fold change in adpc expression, geometric mean (95% C.I.) / fold change in clpB expression, geometric mean (95% C.I.) / fold change in inpA expression, geometric mean (95% C.I.) / fold change in phg expression, geometric mean (95% C.I.): relative to control = 1
Experimental: as §1
The virulence of the substrate-treated multi-species biofilms are evaluated by analyzing the relative expression of 33 genes that are recognized as being related to some form of virulence and from 4 periodontal pathogens.
Expression of bacterial virulence genes is analyzed through SYBR RT-qPCR and normalized for bacterial housekeeping gene expression. […] These effects are illustrated in Tables 6a and 6b:
Note, for Table 6d, fold changes in virulence gene expression are determined relatively to the control condition through the 2^^-ΔΔCt method and are shown as the geometric mean (C.I.) (n = 3) of the 2^^-ΔΔCt values. All substrates are dissolved in PBS at a concentration of 1 M (upper part) or 1%(w/v) (lower part). Values between 0 and 1 represent relative downregulation, values >1 represent relative upregulation. […] NADG: N-acetyl-D-glucosamine; C.I.: 95% confidence interval.

[3] = Table 1a, substrate 1 M, listed as D-(+)-trehalose
[4] = Table 3, separate experiments, concentration not given
[5] = lower part of Table 6d, head prints 1 M (lower part 1%(w/v))
[6] = upper part of Table 6d, substrate 1 M, n = 3

SMILES: OC[C@H]1O[C@H](O[C@H]2O[C@H](CO)[C@@H](O)[C@H](O)[C@H]2O)[C@H](O)[C@@H](O)[C@@H]1O [D-trehalose, D-(+)-trehalose]
- relative proportion of beneficial or commensal species in biofilm ([1]; Table 1a, substrate 1 M): 88.98 (+/- 9.12)^∗ % (Geq/mL)
- relative proportion of cariogenic pathogens in biofilm ([1]; Table 1a, substrate 1 M): 9.22 (+/- 8.55) % (Geq/mL)
- relative proportion of periodontal pathogens in biofilm ([1]; Table 1a, substrate 1 M): 1.80 (+/- 1.04)^∗ % (Geq/mL)
- relative proportion of beneficial or commensal species in biofilm [1, 3]: 88.98±9.12 % (Geq/mL)
- relative proportion of cariogenic pathogens in biofilm [1, 3]: 9.22±8.55 % (Geq/mL)
- relative proportion of periodontal pathogens in biofilm [1, 3]: 1.80±1.04 % (Geq/mL)
- relative proportion of beneficials/commensals in biofilm [1, 4]: 73.55 (+/- 2.84) % (Geq/mL)
- relative proportion of cariogenic pathogens in biofilm [1, 4]: 0.21 (+/- 0.05) % (Geq/mL)
- relative proportion of periodontal pathogens in biofilm [1, 4]: 26.23 (+/- 2.88) % (Geq/mL)
- absolute abundance of A. actinomycetemcomitans (Aa), mean ± SD log (Geq/mL) (A. actinomycetemcomitans; substrate 1% (w/v)): 9.28 ± 0.43 log (Geq/mL)
- absolute abundance of A. actinomycetemcomitans (Aa), mean ± SD log (Geq/mL) (A. actinomycetemcomitans; substrate 1 M in PBS, n = 3): 7.86 ± 0.22^∗ log (Geq/mL)
- absolute abundance of P. gingivalis (Pg), mean ± SD log (Geq/mL) (P. gingivalis; substrate 1% (w/v)): 7.05 ± 0.19 log (Geq/mL)
- absolute abundance of P. gingivalis (Pg), mean ± SD log (Geq/mL) (P. gingivalis; substrate 1 M in PBS, n = 3): 4.37 ± 0.29^∗ log (Geq/mL)
- absolute abundance of S. gordonii, mean ± SD log (Geq/mL) (S. gordonii; substrate 1% (w/v)): 8.45 ± 0.27 log (Geq/mL)
- absolute abundance of S. gordonii, mean ± SD log (Geq/mL) (S. gordonii; substrate 1 M in PBS, n = 3): 9.39 ± 0.31 log (Geq/mL)
- absolute abundance of S. mitis, mean ± SD log (Geq/mL) (S. mitis; substrate 1% (w/v)): 2.65 ± 0.00 log (Geq/mL)
- absolute abundance of S. mitis, mean ± SD log (Geq/mL) (S. mitis; substrate 1 M in PBS, n = 3): 3.15 ± 0.71 log (Geq/mL)
- absolute abundance of S. oralis, mean ± SD log (Geq/mL) (S. oralis; substrate 1% (w/v)): 6.59 ± 0.42 log (Geq/mL)
- absolute abundance of S. oralis, mean ± SD log (Geq/mL) (S. oralis; substrate 1 M in PBS, n = 3): 6.71 ± 0.48 log (Geq/mL)
- absolute abundance of P. intermedia (Pi), mean ± SD log (Geq/mL) (P. intermedia; substrate 1% (w/v)): 7.88 ± 0.33 log (Geq/mL)
- absolute abundance of P. intermedia (Pi), mean ± SD log (Geq/mL) (P. intermedia; substrate 1 M in PBS, n = 3): 4.47 ± 0.60^∗ log (Geq/mL)
- absolute abundance of S. sobrinus, mean ± SD log (Geq/mL) (S. sobrinus; substrate 1% (w/v)): 5.27 ± 0.19 log (Geq/mL)
- absolute abundance of S. sobrinus, mean ± SD log (Geq/mL) (S. sobrinus; substrate 1 M in PBS, n = 3): 7.44 ± 0.18^∗ log (Geq/mL)
- absolute abundance of A. naeslundii (An), mean ± SD log (Geq/mL) (A. naeslundii; substrate 1% (w/v)): 7.6 ± 0.15 log (Geq/mL)
- absolute abundance of A. naeslundii (An), mean ± SD log (Geq/mL) (A. naeslundii; substrate 1 M in PBS, n = 3): 4.81 ± 0.47^∗ log (Geq/mL)
- fold change in DnaJ expression, geometric mean (95% C.I.) [2, 5]: 0.62 (0.08-4.67) fold
- fold change in DnaK expression, geometric mean (95% C.I.) [2, 5]: 0.78 (0.44-1.36) fold
- fold change in ECF expression, geometric mean (95% C.I.) [2, 5]: 0.69 (0.53-0.91) fold
- fold change in GroES expression, geometric mean (95% C.I.) [2, 5]: 1.22 (0.61-2.45) fold
- fold change in HtpG expression, geometric mean (95% C.I.) [2, 5]: 0.69 (0.42-1.12) fold
- fold change in KpsD expression, geometric mean (95% C.I.) [2, 5]: 1.26 (0.52-3.08) fold
- fold change in adpc expression, geometric mean (95% C.I.) [2, 5]: 0.64 (0.29-1.4) fold
- fold change in clpB expression, geometric mean (95% C.I.) [2, 5]: 1.30 (0.44-3.83) fold
- fold change in inpA expression, geometric mean (95% C.I.) [2, 5]: 0.56 (0.31-1.01)^∗ fold
- fold change in phg expression, geometric mean (95% C.I.) [2, 5]: 0.86 (0.82-0.89) fold
- impact on P. intermedia virulence gene expression ([2]; substrate 1% (w/v)): limited impact
- downregulation of P. intermedia virulence gene expression ([2]; substrate 1 M): 5 fold
- fold change in DnaJ expression, geometric mean (95% C.I.) [2, 6]: 1.81 (1.21-2.71) fold
- fold change in DnaK expression, geometric mean (95% C.I.) [2, 6]: 8.82 (6.83-11.38)^∗ fold
- fold change in ECF expression, geometric mean (95% C.I.) [2, 6]: 6.97 (1.65-29.40)^∗ fold
- fold change in GroES expression, geometric mean (95% C.I.) [2, 6]: 11.52 (2.46-53.90)^∗ fold
- fold change in HtpG expression, geometric mean (95% C.I.) [2, 6]: 0.67 (0.43-1.03) fold
- fold change in KpsD expression, geometric mean (95% C.I.) [2, 6]: 0.59 (0.47-0.75) fold
- fold change in adpc expression, geometric mean (95% C.I.) [2, 6]: 1.45 (0.76-2.77) fold
- fold change in clpB expression, geometric mean (95% C.I.) [2, 6]: 1.90 (0.77-4.68) fold
- fold change in inpA expression, geometric mean (95% C.I.) [2, 6]: 0.81 (0.41-1.63) fold
- fold change in phg expression, geometric mean (95% C.I.) [2, 6]: 0.20 (0.14-0.29)^∗ fold
